# Data as given in patent publication US20240116922A1, “IMIDAZO[1,2-A]PYRIDINE DERIVATIVES AS IRAK4 INHIBITORS AND THEIR USE IN THE TREATMENT OF DISEASE” (BIOGEN MA INC., priority 2020, published 2024).
# Structures can show the parent of a compound that is named as a salt.
# Legend:
# [1] = target: IRAK4 (Homo sapiens (Human), UniProt Q9NWZ3); test: IRAK4 MSD biochemical assay (2-hour 1 mM ATP); conditions: 0.1 nM IRAK4, 1 mM ATP, 2 hour at room temperature
# [2] = Kinetic solubility assay (CLND), pH 6.8; assay type: physicochemical; conditions: aqueous buffer, kinetic from dmso stock; potassium phosphate buffer pH 6.8, 2% DMSO, 24 hours at ambient temperature
# [3] = target: MDR1 (Homo sapiens (Human), UniProt P08183); test: in vitro; conditions: MDCK-MDR1
# Sequence of MDR1 (P08183 whole entry): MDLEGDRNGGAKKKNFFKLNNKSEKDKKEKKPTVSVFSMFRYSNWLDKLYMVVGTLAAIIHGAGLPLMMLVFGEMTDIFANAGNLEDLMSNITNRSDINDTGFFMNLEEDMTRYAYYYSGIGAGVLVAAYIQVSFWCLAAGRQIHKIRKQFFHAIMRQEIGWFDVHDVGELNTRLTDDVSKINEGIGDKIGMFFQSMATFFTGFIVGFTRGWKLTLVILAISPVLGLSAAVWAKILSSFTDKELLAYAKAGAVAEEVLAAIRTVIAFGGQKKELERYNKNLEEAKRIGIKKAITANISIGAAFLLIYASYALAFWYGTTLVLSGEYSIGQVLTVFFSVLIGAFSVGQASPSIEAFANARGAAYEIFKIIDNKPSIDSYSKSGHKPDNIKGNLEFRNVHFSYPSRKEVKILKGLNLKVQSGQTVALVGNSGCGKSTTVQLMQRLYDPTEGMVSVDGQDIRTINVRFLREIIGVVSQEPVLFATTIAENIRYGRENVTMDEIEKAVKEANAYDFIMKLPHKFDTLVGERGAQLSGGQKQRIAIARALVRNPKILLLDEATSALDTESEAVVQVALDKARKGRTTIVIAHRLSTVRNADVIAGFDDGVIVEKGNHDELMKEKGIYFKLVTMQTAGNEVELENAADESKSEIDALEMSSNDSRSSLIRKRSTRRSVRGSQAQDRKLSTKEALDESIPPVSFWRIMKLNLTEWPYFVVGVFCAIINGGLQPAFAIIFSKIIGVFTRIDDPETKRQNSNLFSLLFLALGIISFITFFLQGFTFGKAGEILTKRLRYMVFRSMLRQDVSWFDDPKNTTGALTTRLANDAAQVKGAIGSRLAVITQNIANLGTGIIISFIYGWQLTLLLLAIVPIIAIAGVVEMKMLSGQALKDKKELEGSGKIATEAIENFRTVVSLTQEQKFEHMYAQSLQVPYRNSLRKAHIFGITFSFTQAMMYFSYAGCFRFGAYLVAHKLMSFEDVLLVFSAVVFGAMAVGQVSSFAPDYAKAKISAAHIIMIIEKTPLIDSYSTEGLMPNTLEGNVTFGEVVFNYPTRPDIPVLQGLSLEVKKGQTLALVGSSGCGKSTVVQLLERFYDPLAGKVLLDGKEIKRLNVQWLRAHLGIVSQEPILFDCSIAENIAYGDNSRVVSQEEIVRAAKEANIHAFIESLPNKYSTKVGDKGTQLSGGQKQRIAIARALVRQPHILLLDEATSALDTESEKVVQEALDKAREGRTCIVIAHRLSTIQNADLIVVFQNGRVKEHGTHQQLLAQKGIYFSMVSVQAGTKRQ
# Sequence of IRAK4 (Q9NWZ3 whole entry): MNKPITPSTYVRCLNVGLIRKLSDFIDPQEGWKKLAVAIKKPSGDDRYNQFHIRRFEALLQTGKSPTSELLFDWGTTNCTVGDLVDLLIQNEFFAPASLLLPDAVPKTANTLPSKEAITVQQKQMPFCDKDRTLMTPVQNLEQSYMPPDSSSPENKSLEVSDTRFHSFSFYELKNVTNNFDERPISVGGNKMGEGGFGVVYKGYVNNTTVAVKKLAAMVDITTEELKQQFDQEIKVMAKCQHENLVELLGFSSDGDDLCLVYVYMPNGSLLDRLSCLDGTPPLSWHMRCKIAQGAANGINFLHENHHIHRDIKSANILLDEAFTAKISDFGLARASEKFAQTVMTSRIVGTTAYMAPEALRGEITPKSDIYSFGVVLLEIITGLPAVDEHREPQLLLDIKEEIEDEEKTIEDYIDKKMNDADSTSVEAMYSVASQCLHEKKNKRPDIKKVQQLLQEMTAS
IC50 [1],solubility kinetic at 24 h [2],"efflux ratio at 120 min, 1 μM [3]",SMILES
0.2 nM,46.5 µg/mL,11.1,"C[C@@H](CF)Oc1cc2nc(C34CCC(C)(C3)OC4)cn2cc1C(=O)Nc1cccn(C2CC2)c1=O (mixture of isomers) [Example 30, N-(1-cyclopropyl-2-oxo-1,2-dihydropyridin-3-yl)-7-(((S)-1-fluoropropan-2-yl)oxy)-2-(1-methyl-2-oxabicyclo[2.2.1]heptan-4-yl)imidazo[1,2-a]pyridine-6-carboxamide]"
0.6 nM,27.6 µg/mL,12.6,"CC(C)Oc1cc2nc([C@]34CC[C@](C)(C3)OC4)cn2cc1C(=O)Nc1cccn(C2CC2F)c1=O (mixture of isomers) [Example 100, N-(1-(2-fluorocyclopropyl)-2-oxo-1,2-dihydropyridin-3-yl)-7-isopropoxy-2-((1R,4S)-1-methyl-2-oxabicyclo[2.2.1]heptan-4-yl)imidazo[1,2-a]pyridine-6-carboxamide]"
0.7 nM,38.7 µg/mL,15.8,"CC12CC(c3cn4cc(C(=O)Nc5cccn([C@@H]6C[C@@H]6F)c5=O)c(OC5CC5)cc4n3)(CO1)C2 (racemic) [Example 105, (rac)-Cis-7-cyclopropoxy-N-(1-(2-fluorocyclopropyl)-2-oxo-1,2-dihydropyridin-3-yl)-2-(1-methyl-2-oxabicyclo[2.1.1]hexan-4-yl)imidazo[1,2-a]pyridine-6-carboxamide]"
0.1 nM,0.7 µg/mL,2,"Cc1cnc2c(NC(=O)c3cn4cc([C@@]56CC[C@@](C)(C5)OC6)nc4cc3OC(C)C)cnn2c1 (single isomer, unassigned) [Comparator 3B, reference compound]"
2.5 nM,51.3 µg/mL,4.6,"CC(C)Oc1nc2nc([C@@]34CC[C@@](C)(C3)OC4)cn2cc1C(=O)Nc1ccn(C)n1 (single isomer, unassigned) [Comparator 4C, reference compound]"
1.3 nM,75.7 µg/mL,4.8,"CC[C@@H](C)Oc1cc2nc(C34COC(CF)(C3)C4)cn2cc1C(=O)Nc1cccn(C2CC2)c1=O (single isomer, unassigned) [Example 14]"
0.3 nM,5.2 µg/mL,2.8,"C[C@@]12CC[C@@](c3cn4cc(C(=O)Nc5cccn(C6CC6)c5=O)c(OC5CCC5)nc4n3)(CO1)C2 (single isomer, unassigned) [Example 16]"
0.5 nM,8.5 µg/mL,3.9,"C[C@]12CC[C@](c3cn4cc(C(=O)Nc5cccn(C6CC6)c5=O)c(OC5CCC5)nc4n3)(CO1)C2 (single isomer, unassigned) [Example 17]"
14 nM,,1,"CC(C)Oc1c(C(=O)Nc2ccnn(C3CC3)c2=O)cn2cc(C34COC(C)(C3)C4)nc2c1F [Example 73, N-(2-cyclopropyl-3-oxo-2,3-dihydropyridazin-4-yl)-8-fluoro-7-isopropoxy-2-(1-methyl-2-oxabicyclo[2.1.1]hexan-4-yl)imidazo[1,2-a]pyridine-6-carboxamide]"
21.4 nM,,4.3,"CC(C)Oc1cc2nc(C34COC(C)(C3)C4)cn2cc1C(=O)Nc1cccn([C@@H]2C[C@@H]2C)c1=O [Example 133, 7-isopropoxy-2-(1-methyl-2-oxabicyclo[2.1.1]hexan-4-yl)-N-(1-((1R,2S)-2-methylcyclopropyl)-2-oxo-1,2-dihydropyridin-3-yl)imidazo[1,2-a]pyridine-6-carboxamide]"
15.9 nM,,1.5,"CC(C)Oc1c(C(=O)Nc2cccn([C@@H]3C[C@H]3C)c2=O)cn2cc(C34COC(C)(C3)C4)nc2c1F [Example 147, 8-fluoro-7-isopropoxy-2-(1-methyl-2-oxabicyclo[2.1.1]hexan-4-yl)-N-(1-((1R,2R)-2-methylcyclopropyl)-2-oxo-1,2-dihydropyridin-3-yl)imidazo[1,2-a]pyridine-6-carboxamide]"
24.9 nM,,5.3,"CC(C)Oc1cc2nc([C@]34CC[C@](C)(C3)OC4)cn2cc1C(=O)Nc1cccn([C@@H]2C[C@@H]2C)c1=O [Example 181, 7-isopropoxy-2-((1R,4S)-1-methyl-2-oxabicyclo[2.2.1]heptan-4-yl)-N-(1-((1R,2S)-2-methylcyclopropyl)-2-oxo-1,2-dihydropyridin-3-yl)imidazo[1,2-a]pyridine-6-carboxamide trifluoroacetate]"
15.4 nM,,2.9,"CC(C)Oc1cc2nc([C@@]34CC[C@@](C)(C3)OC4)cn2cc1C(=O)Nc1cccn([C@@H]2C[C@@H]2C)c1=O [Example 183, 7-isopropoxy-2-((1S,4R)-1-methyl-2-oxabicyclo[2.2.1]heptan-4-yl)-N-(1-((1R,2S)-2-methylcyclopropyl)-2-oxo-1,2-dihydropyridin-3-yl)imidazo[1,2-a]pyridine-6-carboxamide trifluoroacetate]"

SMILES,IC50 [1],solubility kinetic at 24 h [2],"efflux ratio at 120 min, 1 μM [3]"
"O=C(Nc1cccn(C2CC2F)c1=O)c1cn2cc([C@]34CO[C@](CF)(C3)C4)nc2nc1OC1CCC1 (mixture of isomers) [Example 106, (rac)-Cis-7-cyclobutoxy-N-(1-(2-fluorocyclopropyl)-2-oxo-1,2-dihydropyridin-3-yl)-2-(1-(fluoromethyl)-2-oxabicyclo[2.1.1]hexan-4-yl)imidazo[1,2-a]pyrimidine-6-carboxamide]",0.5 nM,44.4 µg/mL,12.8
"CC12CC(c3cn4cc(C(=O)Nc5cccn([C@@H]6C[C@@H]6F)c5=O)c(OC5CCC5)cc4n3)(CO1)C2 (racemic) [Example 85, (rac)-Cis-7-cyclobutoxy-N-(1-(2-fluorocyclopropyl)-2-oxo-1,2-dihydropyridin-3-yl)-2-(1-methyl-2-oxabicyclo[2.1.1]hexan-4-yl)imidazo[1,2-a]pyridine-6-carboxamide]",0.6 nM,44.5 µg/mL,7.7
"O=C(Nc1cccn([C@@H]2C[C@@H]2F)c1=O)c1cn2cc(C34COC(C3)C4)nc2nc1OC1CCC1 (racemic) [Example 86, (rac)-Cis-2-(2-oxabicyclo[2.1.1]hexan-4-yl)-7-cyclobutoxy-N-(1-(2-fluorocyclopropyl)-2-oxo-1,2-dihydropyridin-3-yl)imidazo[1,2-a]pyrimidine-6-carboxamide]",0.8 nM,44.9 µg/mL,0.9
"CC12CC(c3cn4cc(C(=O)Nc5cccn(C6C[C@@H]6F)c5=O)c(OC5CCC5)nc4n3)(CO1)C2 (mixture of isomers) [Example 103, (rac)-Cis-7-cyclobutoxy-N-(1-(2-fluorocyclopropyl)-2-oxo-1,2-dihydropyridin-3-yl)-2-(1-methyl-2-oxabicyclo[2.1.1]hexan-4-yl)imidazo[1,2-a]pyrimidine-6-carboxamide]",0.4 nM,58.8 µg/mL,12.8
"C[C@H]1C[C@H]1n1cccc(NC(=O)c2cn3cc(C45COC(C)(C4)C5)nc3nc2OC2CCC2)c1=O [Example 189, 7-cyclobutoxy-2-(1-methyl-2-oxabicyclo[2.1.1]hexan-4-yl)-N-(1-((1R,2S)-2-methylcyclopropyl)-2-oxo-1,2-dihydropyridin-3-yl)imidazo[1,2-a]pyrimidine-6-carboxamide trifluoroacetate]",34.6 nM,,3.4
